Experimental findings from patent US20130296316A1, “Antiparasitic Agents Based On mTOR Inhibitors” (priority 2010, published 2013) are described below.

The subject of one assay is L. major promastigotes. As to the kind of experiment: Potency assessment against Leishmania major promastigotes (growth, cell counting). Particulars: for EC50 / IC50: Leishmania major; for EC50: promastigotes, average of three replicates, read-out: Effective concentration (EC50) L. major; for activity against L. major promastigotes in words: highest concentration tested; for IC50: Table 2B, read-out: L. major Promastigote IC50, growth inhibition. Format: cell-based.

Assay [1] deals with L. donovani axenic amastigotes. In words: Potency assessment against Leishmania donovani axenic amastigotes (growth, cell counting). The conditions noted are these: for EC50 / IC50: Leishmania donovani; for EC50: axenic amastigotes, average of three replicates, read-out: Effective concentration (EC50) L. donovani axenic amastigotes; for activity against L. donovani axenic amastigotes in words: highest concentration tested; for IC50: Table 2B, read-out: L. donovani Axenic Amastigote IC50, growth inhibition. Type of assay: cell-based.

The test system of the next assay is T. cruzi trypomastigotes. As to the kind of experiment: T. cruzi intracellular replication in NIH/3T3 host cells (β-galactosidase, CPRG). The conditions noted are these: Trypanosoma cruzi; for EC50: NIH3T3, 96 h, trypomastigotes with 3T3 host cells, four days, three replicates within ±10.2%, read-out: Effective concentration (EC50) T. cruzi; for IC50: NIH3T3, Table 2B, read-out: T. Cruzi IC50, growth inhibition. Format: cell-based, Trypanosoma cruzi.

Assay [2] concerns T. brucei brucei Lister 427. In words: Potency assessment against T. brucei brucei Lister 427 bloodstream form (AlamarBlue, 72 h). The conditions noted are these: Trypanosoma brucei; bloodstream form, average of three replicates; read-out: Effective concentration (EC50) T. b. brucei. Format: cell-based, Trypanosoma brucei brucei.
Another assay relates to T. b. rhodesiense. In words: Potency assessment against T. b. rhodesiense EATRO3 bloodstream form (AlamarBlue, 72 h). Format: cell-based, Trypanosoma brucei rhodesiense. The conditions noted are these: Trypanosoma brucei, RHODESIENSE; Table 2B; read-out: T. brucei rhod IC50, growth inhibition. (The colour change of resazurin is a common sign of viable cells or microbes.)
Assay [3] concerns L. donovani promastigotes. As to the kind of experiment: Potency assessment against Leishmania donovani promastigotes (growth, cell counting). The conditions noted are these: Leishmania donovani; Table 2B; read-out: L. donovani Promastigote IC50, growth inhibition. Format: cell-based.

As a reminder, the IC50 is the concentration that inhibits the measured activity by half.

Turning to `O=c1cc(N2CCOCC2)oc2c(-c3ccccc3)cccc12` [LY294002, 2-(4-morpholinyl)-8-phenyl-4H-1-benzopyran-4-one], the EC50 was greater than 25 µM in the assay on L. major promastigotes, greater than 5 µM in assay [1], greater than 50 µM in the assay on T. cruzi trypomastigotes and greater than 2 µM in assay [2]. Besides, the “activity against L. major promastigotes in words” value in the assay with L. major promastigotes is “inactive”. Besides, the “activity against L. donovani axenic amastigotes in words” value in assay [1] is “inactive”.
Take `O=c1cc(N2CCNCC2)oc2c(-c3ccccc3)cccc12` [LY303511, 2-piperazinyl-8-phenyl-4H-1-benzopyran-4-one]: the EC50 in the assay on L. major promastigotes was greater than 25 µM; in assay [1], greater than 5 µM; in the assay with T. cruzi trypomastigotes, greater than 10 µM; in assay [2] it was greater than 2 µM. In the assay with L. major promastigotes, the “activity against L. major promastigotes in words” value is “inactive”. Moreover, the “activity against L. donovani axenic amastigotes in words” value in assay [1] is “inactive”.
With `Oc1ccccc1-c1nc(N2CCOCC2)c2cnn(C3CCN(Cc4ccccc4)CC3)c2n1` [NEU-00000231], the IC50 was 2.78 µM with L. major promastigotes, 2.23 µM in the assay with T. b. rhodesiense, 3.02 µM in assay [1] and 8.01 µM in assay [3].
For `c1ccc(CN2CCC(n3ncc4c(N5CCOCC5)nc(-c5ccncc5)nc43)CC2)cc1` [NEU-00000232], the IC50 in the assay on L. major promastigotes came out at 6.54 µM; with T. b. rhodesiense, 3.05 µM; in assay [1], 2.43 µM; in assay [3] it was 8.06 µM.
As for `Nc1ccc(-c2nc(N3CCOCC3)c3cnn(C4CCN(Cc5ccccc5)CC4)c3n2)cc1` [NEU-00000233], the results for the IC50 (with L. major promastigotes; in the assay with T. b. rhodesiense; in assay [3]) were less than 25 µM, 3.7 µM and roughly 25 µM, respectively.
Take `CC(C)(C)OC(=O)Nc1ccc(-c2nc(N3CCOCC3)c3cnn(C4CCN(Cc5ccccc5)CC4)c3n2)cc1` [NEU-00000234]: the IC50 in the assay with L. major promastigotes was found to be 5.49 µM; in the assay on T. b. rhodesiense, 2.19 µM; in assay [1], 6.9 µM; in assay [3], 6.34 µM.
On to `COc1cccc(-c2nc(N3CCOCC3)c3oc4ncccc4c3n2)c1` [NEU-0000288], for which the IC50 was 4.07 µM with L. major promastigotes, roughly 20 µM in assay [1] and 3.7 µM in the assay on T. cruzi trypomastigotes.
As to `COc1cccc(-c2nc(N3CCCCC3)c3oc4ncccc4c3n2)c1` [NEU-0000289], the IC50 in the assay with L. major promastigotes was 7.65 µM; in assay [1] it was roughly 20 µM; with T. cruzi trypomastigotes, 3.9 µM.
In the case of `c1ccc(-c2nc(N3CCOCC3)c3oc4ncccc4c3n2)cc1` [NEU-0000290], the figures for the IC50 (in the assay on L. major promastigotes; in assay [1]; with T. cruzi trypomastigotes) were greater than 20 µM, greater than 20 µM and 1.5 µM, respectively.
For `c1ccc(-c2nc(N3CCCCC3)c3oc4ncccc4c3n2)cc1` [NEU-0000291], the IC50 with L. major promastigotes was greater than 10 µM; in assay [1], greater than 10 µM; in the assay on T. cruzi trypomastigotes, 12 µM.
For the molecule `CCOCCNc1nc(-c2ccccc2)nc2c1oc1ncccc12` [NEU-0000292], the half-inhibitory concentration (IC50) in the assay with L. major promastigotes was 4 µM; in assay [1], 12.5 µM; in the assay on T. cruzi trypomastigotes, greater than 50 µM.
As to `CCOCCNc1nc(-c2cccc(OC)c2)nc2c1oc1ncccc12` [NEU-0000361], the IC50 is greater than 5 µM in the assay with T. b. rhodesiense and greater than 50 µM in the assay on T. cruzi trypomastigotes.
On to `CCOCCNc1nc(-c2cccc(O)c2)nc2c1oc1ncccc12` [NEU-0000362], for which the IC50 with T. b. rhodesiense is greater than 1 µM; with T. cruzi trypomastigotes it was greater than 50 µM.
For `CCOc1ccccc1-c1nc(N2CCOCC2)c2oc3ncccc3c2n1` [NEU-0000363], the results for the IC50 with T. b. rhodesiense and in the assay on T. cruzi trypomastigotes were greater than 5 µM and greater than 50 µM, respectively.
For `CCOc1ccccc1-c1nc(N2CCCCC2)c2oc3ncccc3c2n1` [NEU-0000364], in that order: greater than 5 µM and greater than 50 µM.
Take `COc1ccc(-c2nc(N3CCOCC3)c3oc4ncccc4c3n2)cc1` [NEU-0000365]: the IC50 was greater than 5 µM in the assay with T. b. rhodesiense and greater than 50 µM in the assay on T. cruzi trypomastigotes.
